# Source: patent publication US20150038545A1, “HYDROXYPHENYL PYRROLE COMPOUNDS CONTAINING AN HYDROXAMIC ACID AS HDAC INHIBITORS AND MEDICINAL APPLICATIONS THEREOF” (UNIVERSIDAD DEL PAÍS VASCO, priority 2011, published 2015)
# Legend:
# MCG803 = experiment: Cancer cell growth inhibition (CellTiter-Glo), MCG803; format: cell-based, Human; conditions: Homo sapiens; Gastric Cancer, MCG803, 72 h treatment
# Procedure: (§1) Cell culture-based assays were used to evaluate the ability of compounds of the invention to inhibit cancer cell growth.
# (§2) Cells were obtained from the American Type Culture Collection (ATCC). Cells were cultured at 37° C. with 5% CO2 in the appropriate growth medium (see table below), and harvested respectively during the logarithmic growth period and counted with hemocytometer. The cell viability was examined by trypan blue exclusion. Cell concentrations were adjusted to 5.56×10^4 cells/ml with respective medium.
# (§3) Stock solutions of test compounds and positive drugs Doxorubicin (Zhejiang, Haizheng, China), Cisplatin (Nanjing Zhiyao, China) and Mitomycin (Zhejiang, Haizheng, China) were prepared in dimethyl sulphoxide (DMSO) or PBS at 20 mM.
# (§4) In order to determine the IC50 for each compound, experiments were carried out in 96-well plates and the cell lines seeded at a density of 5,000 cells/well. […] All treatments were performed in triplicate. 10 μl of drug solution was added to each well and incubated for 72 hours. At the end of the incubation, 100 μl of the CellTiter-Glo Reagent were added to each well and the contents were mixed for 2 munites on an orbital shaker to induce cell lysis. The plate was incubated at room temperature for 10 minutes to stabilize luminiscent signal, and luminiscent was recorded. […] In order to calculate IC50 values, dose-responsive curves were fitted using nonlinear regression model with a sigmoidal dose response.
# 143b = experiment: Cancer cell growth inhibition (CellTiter-Glo), 143b; format: cell-based; conditions: Homo sapiens, Osteosarcoma, 72 h treatment
# Procedure: as §1, §2, §3, §4
# BGC-823 = experiment: Cancer cell growth inhibition (CellTiter-Glo), BGC-823; format: cell-based, Human; conditions: Homo sapiens; Gastric Cancer, BGC-823, 72 h treatment
# Procedure: as §1, §2, §3, §4
# A549 = experiment: Cancer cell growth inhibition (CellTiter-Glo), A549; format: cell-based, Human; conditions: Homo sapiens; Lung Cancer, A549, 72 h treatment
# Procedure: as §1, §2, §3, §4
# Hep3B = experiment: Cancer cell growth inhibition (CellTiter-Glo), Hep3B; format: cell-based, Human; conditions: Homo sapiens, Liver Cancer, 72 h treatment
# Procedure: as §1, §2, §3, §4
# OVCAR3 = experiment: Cancer cell growth inhibition (CellTiter-Glo), OVCAR3; format: cell-based, Human; conditions: Homo sapiens, OVCAR-3; Ovarian Cancer, OVCAR3, 72 h treatment
# Procedure: as §1, §2, §3, §4
# Human HDAC9 = target: T1, Human HDAC9 (Homo sapiens, UniProt Q9UKV0); experiment: In vitro HDAC9 inhibition, fluorogenic peptide assay; format: biochemical; conditions: for IC50: read-out: IC50 (nM) of enzyme activity HDAC9
# T1 construct: Amino acids 604-1066 with C-terminal His tag, MW=50.7 kDa; His (C); purchased BioMol, Hamburg, Germany
# T1 sequence (Q9UKV0 604-1066 isoform Q9UKV0-7): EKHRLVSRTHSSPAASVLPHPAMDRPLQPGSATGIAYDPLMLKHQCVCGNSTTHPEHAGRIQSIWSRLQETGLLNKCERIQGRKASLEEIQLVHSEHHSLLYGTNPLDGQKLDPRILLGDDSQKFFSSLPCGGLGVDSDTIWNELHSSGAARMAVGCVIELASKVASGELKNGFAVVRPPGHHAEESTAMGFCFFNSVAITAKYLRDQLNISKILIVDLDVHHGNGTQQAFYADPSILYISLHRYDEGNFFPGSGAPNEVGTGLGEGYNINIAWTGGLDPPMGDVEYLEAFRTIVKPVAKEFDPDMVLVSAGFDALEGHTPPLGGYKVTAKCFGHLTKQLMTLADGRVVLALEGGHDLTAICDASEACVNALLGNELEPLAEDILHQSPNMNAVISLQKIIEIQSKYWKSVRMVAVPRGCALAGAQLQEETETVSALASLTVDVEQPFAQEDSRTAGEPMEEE
# Procedure: All HDAC assays were performed using acetylated AMC-labeled peptide substrate: • Substrate for isoforms HDAC1, 2, 3, 4, 5, 6, 7, 9, 10, 11 and HeLa nuclear extract assays: Acetylated fluorogenic peptide from p53 residues 379-382 (RHKKAc) (BioMol. Cat. # KI-104). • Substrate for HDAC8 assays: Acetylated fluorogenic peptide from p53 residues 379-382 (RHKAcKAc) (BioMol. Cat. # KI-178).
# Enzymes: • HDAC1 assay: 75 nM Human HDAC1 (GenBank Accession No. NM_004964): Full length with C-terminal GST tag, MW=79.9 kDa, expressed by baculovirus expression system in Sf9 cells (BioMol. Cat. # SE-456). • HDAC2 assay: 5 nM Human HDAC2 (GenBank Accession No. Q92769): Full length with C-terminal His tag, MW=60 kDa, expressed by baculovirus expression system in Sf9 cells (BioMol. Cat. # SE-500). • HDAC3 assay: 2.3 nM Human HDAC3/NcoR2 (GenBank Accession No. NM_003883 for HDAC3, GenBank Accession No.NM_006312 for NcoR2): Complex of human HDAC3, full length with C-terminal His tag, MW=49.7 kDa, and human NCOR2, N-terminal GST tag, MW=39 kDa, co-expressed in baculovirus expression system (BioMol. Cat. # SE-507). • HDAC4 assay: 266 nM Human HDAC4 (GenBank Accession No. NM_006037): Amino acids 627-1085 with N-terminal GST tag, MW=75.2 kDa, expressed in baculovirus expression system (BioMol, Hamburg, Germany). • HDAC5 assay: 588 nM Human HDAC5 (GenBank Accession No. NM_001015053): Full length with Nterminal GST tag, MW=150 kDa, expressed by baculovirus expression system in Sf9 cells (BioMol, Hamburg, Germany). • HDAC6 assay: 13 nM Human HDAC6 (GenBank Accession No. BC069243): Full length with N-terminal GST tag, MW=159 kDa, expressed by baculovirus expression system in Sf9 cells (BioMol. Cat. # SE-508). • HDAC7 assay: 962 nM Human HDAC7 (GenBank Accession No. AY302468): Amino acids 518-end with N-terminal GST tag, MW=78 kDa, expressed in baculovirus expression system (BioMol, Hamburg, Germany). • HDAC8 assay: 119 nM Human HDAC8 (GenBank Accession No. NM018486): Full length, MW=42 kDa, expressed in an E. coli expression system (BioMol. […]
# The reactions were carried out in a 96-well microplate for fluorometry in a 50 μl reaction volume. […] The reaction was allowed to develop for 45 minutes at 30° C. with 5% CO2; then the fluorescent signal was measured with an excitation wavelength at 360 nm and an emission wavelength at 460 nm in a microplate-reading fluorometer (GeminiXS; Molecular Devices, Sunnyvale, Calif.). […] IC50 was calculated by fitting the experimental data to a dose-response curve. […]
IC50 (MCG803),IC50 (143b),IC50 (BGC-823),IC50 (A549),IC50 (Hep3B),IC50 (OVCAR3),IC50 (Human HDAC9),Selectivity against HDAC6 (IC50 HDACx/IC50 HDAC6) HDAC9 (Human HDAC9; IC50 HDAC9/IC50 HDAC6),Compound
1.11 µM,1.71 µM,2.16 µM,4.65 µM,1.61 µM,3.3 µM,,,"O=C(CCCCCNC(=O)c1[nH]c(-c2ccccc2)cc1-c1ccc(O)cc1)NO [Example 1, N-(6-(hydroxyamino)-6-oxohexyl)-3-(4-hydroxyphenyl)-5-phenyl-1H-pyrrole-2-carboxamide]"
2.61 µM,2.91 µM,23.1 µM,4.35 µM,1.01 µM,1.05 µM,27 nM,,"O=C(CCCCCNC(=O)c1[nH]c(-c2ccc(O)cc2)cc1-c1ccoc1)NO [Example 5, 3-(3-furyl)-N-(5-(hydroxycarbamoyl)pentyl)-5-(4-hydroxy-phenyl)-1H-pyrrole-2-carboxamide]"
,,,,,,768 nM,38.4,"COc1ccc(-c2cc(-c3ccccc3)[nH]c2C(=O)NCCCCCC(=O)NO)cc1 [Compound A, N-[6-(hydroxyamino)-6-oxohexyl]-3-(4-methoxyphenyl)-5-phenyl-1H-pyrrole-2-carboxamide, reference compound]"
3.08 µM,5.38 µM,11.7 µM,8.25 µM,1.6 µM,3.34 µM,,,"O=C(CCCCCNC(=O)c1[nH]c(-c2ccc(O)cc2)cc1-c1ccccc1)NO [Example 2, N-(6-(hydroxyamino)-6-oxohexyl)-5-(4-hydroxyphenyl)-3-phenyl-1H-pyrrole-2-carboxamide]"
2.82 µM,2.72 µM,13.8 µM,5.39 µM,0.89 µM,1.74 µM,80 nM,,"O=C(CCCCCNC(=O)c1[nH]c(-c2ccc(O)cc2)cc1-c1ccsc1)NO [Example 6, N-(5-(hydroxycarbamoyl)pentyl)-5-(4-hydroxyphenyl)-3-(3-thienyl)-1H-pyrrole-2-carboxamide]"
